Source: patent US20100291584A1, “MICROFLUIDIC IMAGING CYTOMETRY” (The Regents of the University of California, priority 2008, published 2010)

How the values were obtained:
U87-PTEN cells = experiment: 2-NBDG glucose analog uptake on chip; assay type: cell-based, human; conditions: 20 min incubation in HBSS
Protocol: (§1) To monitor glucose uptake in U87 cells, a fluorescent deoxyglucose (2-[N-(7-nitrobenz-2-oxa-1,3-diaxol-4-yl)amino]-2-deoxyglucose; 2-NBDG)^72,73 was used and monitored the 2-NBDG uptake by U87 and U87-PTEN cells (FIG. 6). After cells were loaded into a chip, culture medium was washed with Hanks' balanced salt solution (HBSS) with CaCl2. Then, 2-NBDG in HBSS was loaded into a cell chamber and incubated for 20 min in an incubator.

U87 cells = experiment: 2-NBDG glucose analog uptake on chip; assay type: cell-based, human; conditions: 20 min incubation in HBSS
Protocol: as §1

mTOR = mTOR (Homo sapiens, UniProt P42345+P62942); conditions: glioblastoma patients
[1] = tested on: recurrent malignant gliomas; experiment: Clinical trial of Avastin (in combination with CPT-11) in patients with recurrent malignant gliomas; assay type: in vivo, human
Text: The obvious clinical efficacy of avastin will most certainly change the standard of care for malignant glioma patients. […] We will address the following questions: 1) does increased vascularity predispose towards clinical response to avastin (this will be done in collaboration with Dr. Luisa Iruela-Arispe, a noted expert in angiogenesis at UCLA); 2) are the downstream signaling pathways regulated by VEGF reactivated during response and by what mechanism. Are tumors which are driven by key pathways that promote VEGF expression (i.e. EGFR/PI3K signaling) more sensitive to avastin? In addition to testing lese specific hypotheses, we will apply global screening strategies. These include array CGH to detect chromosomal regions of interest associated with sensitivity and resistance (will be done at MSKCC by Dr. Mellinghoff) and integrated with global gene expression data (done both at UCLA and at MSKCC), in addition, through our NanoSystems Biology Cancer Center, we have begun collaboration with Dr. Lee Hood to use surface Plasmon resonance to facilitate the quantitative detection of thousands of proteins in a serum samples. This will enable us to identify protein signatures associated with sensitivity and acquired resistance.

With `O=[N+]([O-])c1ccc(N[C@H]2C(O)O[C@H](CO)[C@@H](O)[C@@H]2O)c2nonc12` (stereo partly drawn) [2-NBDG, 2-[N-(7-nitrobenz-2-oxa-1,3-diaxol-4-yl)amino]-2-deoxyglucose] the “fluorescent signal of 2-NBDG uptake” value (U87-PTEN cells) was “could not be detected” and the “fluorescent signal of 2-NBDG uptake” value (U87 cells) was “signals of 2-NBDG were observed”.

With `CO[C@H]1C[C@@H]2CC[C@@H](C)[C@@](O)(O2)C(=O)C(=O)N2CCCC[C@H]2C(=O)O[C@H]([C@H](C)C[C@@H]2CC[C@@H](O)[C@H](OC)C2)CC(=O)[C@H](C)/C=C(\C)[C@@H](O)[C@@H](OC)C(=O)[C@H](C)C[C@H](C)/C=C/C=C/C=C/1C` [rapamycin] the “rapamycin level in tumor tissue in vivo” value (mTOR) was “present in potentially therapeutic levels” and the “extent of mTOR pathway inhibition” value (mTOR; in vivo, variable between patients) was 10%-80%.

“Avastin: VEGF inhibitor, given in combination with CPT-11” was tested, and the “median time to tumor progression” value ([1]; Avastin with CPT-11, 95% CI=122-272, comparator median 56 days) was 209 days and the median overall survival ([1]; Avastin with CPT-11, 95% CI=251-424, comparator median 184 days) was 340 days.
